Where only a bound is given, the exact number is not on record here.

The test system of assay [1] is HS-PSS. The assay is described as follows: relative IC50 (inflection point of fitted dose-response curve, CellTox-Green cytotoxicity, 72 h; top asymptote may be below 50%); higher = less potent. The procedure, abridged: (§1)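 MPNST cell lines and primary human Schwann cells were grown for 72 h at 37 °C in 384-well plates containing five 10-fold compound dilutions. CellTox-Green, added before seeding at a final 1:1000 dilution, gave fluorescence from DNA released by disrupted cells, and signals were scaled to vehicle and positive-control wells. Curves were fitted with a four-parameter logistic model. Drug sensitivity score and relative IC50 come from these fits, with IC50 censored at the top concentration.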

Assay [2] deals with YST-1. In words: relative IC50 (inflection point of fitted dose-response curve, CellTiter-Glo viability, 72 h; top asymptote may be below 50% inhibition); higher = less potent. The procedure, abridged:
(§2)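 Viability of MPNST cell lines and primary human Schwann cells was read as CellTiter-Glo ATP luminescence after 72 h at 37 °C, 5% CO2, in 384-well plates seeded with 750–1000 cells per well. Each compound had been preprinted at five concentrations in 10-fold steps. Signals were scaled between vehicle and positive-control wells, duplicates averaged where present, and fitted with four-parameter logistic curves. Drug sensitivity score and relative IC50 (censored at the top concentration) come from those fits, and percent inhibition is taken at the top concentration.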
(In general: ATP-based viability assays read luminescence as a measure of living cells.)

The test system of assay [3] is HS-Sch-2. The assay is described as above. The procedure, abridged:
as §2

The subject of assay [4] is HS-Sch-2. In words: drug sensitivity score (DSS, CellTiter-Glo viability, 72 h) (DSS (dimensionless)); higher = more sensitive; extreme values may be limits of the assay. The procedure, abridged:
as §2

Assay [5] deals with YST-1. Described as above. The procedure, abridged: as §2
The subject of assay [6] is HS-PSS. The assay is described as above. The procedure, abridged:
as §2

In assay [7] the test system is HS-Sch-2. The assay is described as follows: % inhibition of CellTiter-Glo viability at highest tested concentration (72 h), relative to DMSO and benzethonium chloride controls; higher = more inhibition. The procedure, abridged: as §2
The subject of assay [8] is YST-1. Described as above. The procedure, abridged:
as §2

Assay [9] relates to HS-PSS. The description is as above. The procedure, abridged:
as §2

Assay [10] concerns HS-PSS. The assay is described as follows: drug sensitivity score (DSS, CellTox-Green cytotoxicity, 72 h) (DSS (dimensionless)); higher = more cytotoxic; extreme values may be limits of the assay. The gist of the method: as §1

For orientation: relative IC50 means the concentration at the midpoint between the plateaus of the fitted inhibition curve. Take `COc1ccc(Cl)c(Nc2nc3ccccc3nc2NS(=O)(=O)c2cccc(NC(=O)C(C)(C)N)c2)c1` [Pilaralisib]: the “relative IC50” value in assay [1] was above 2500 nM; in assay [2] it was 674 nM.
The like results for `O=c1ncn2nc(Sc3ccc(F)cc3F)ccc2c1-c1c(Cl)cccc1Cl` [VX 745] were, in that order, above 10000 nM and 778 nM.
Turning to `CCN(c1cc(-c2ccc(CN3CCOCC3)cc2)cc(C(=O)NCc2c(C)cc(C)[nH]c2=O)c1C)C1CCOCC1` [Tazemetostat], the “relative IC50” value in assay [1] and in assay [2] was above 10000 nM throughout.
With `Cc1[nH]c(/C=C2\C(=O)Nc3ccccc32)c(C)c1CCC(=O)O` [Orantinib], the “relative IC50” value in assay [1] is 205 nM; in assay [3] it was above 10000 nM.
Regarding `Cc1cccc(-c2[nH]c(CNc3ccccc3F)nc2-c2ccc3ncnn3c2)n1` [TEW-7197], the “relative IC50” value in assay [1] and in [2] was above 2500 nM in each case.
On to `CC(C)Oc1cc(Nc2nc(N[C@@H](C)c3ccc(F)cn3)ncc2Cl)n[nH]1` [AZ-23], for which the “relative IC50” value in [2] was determined as 162 nM.
For `COc1cc(C(=O)NC2CCN(C)CC2)c(F)cc1Nc1ncc2c(n1)N(C1CCCC1)CC(F)(F)C(=O)N2C` [TAK-960], the “relative IC50” value in assay [1] and in assay [2] was above 2500 nM each time.
For `CN1CCN(C2CCN(C(=O)Nc3cc(Oc4ccc(NC(=O)C5(C(=O)Nc6ccc(F)cc6)CC5)c(F)c4)ccn3)CC2)CC1` [Golvatinib], the “relative IC50” value in assay [1] was above 2500 nM.
In the case of `O=C(NOCC1CC1)c1ccc(F)c(F)c1Nc1ccc(I)cc1Cl`, the “relative IC50” value in assay [1] is above 10000 nM; in [3] it was 1630 nM.
Regarding `OCCn1cc(-c2cnc3nnn(Cc4ccc5ncccc5c4)c3n2)cn1`, the “relative IC50” value in [1] and in [3] was above 2500 nM each time.
As to `Cc1nc(NC(=O)N2CCC[C@H]2C(N)=O)sc1-c1ccnc(C(C)(C)C(F)(F)F)c1` [Alpelisib], the “relative IC50” value in assay [1] was above 2500 nM; in [2] it was 217 nM.
On to `N#CC1(c2ccc(NC(=O)c3cccnc3NCc3ccncc3)cc2)CCCC1` [Apatinib], for which the “relative IC50” value in assay [1] and in [3] was above 10000 nM throughout.
In the case of `Cn1cc(-c2ccc3nnc(C(F)(F)c4ccc5ncccc5c4)n3n2)cn1`, the “relative IC50” value in assay [1] was above 10000 nM.
Regarding `Clc1ccccc1C(c1ccccc1)(c1ccccc1)n1cccn1` [TRAM-34], the “relative IC50” value in assay [1] and in assay [2] was above 1000 nM in each case.
Turning to `O=C(Nc1ccc(OC(F)(F)F)cc1)c1sccc1NCc1ccnc2ccccc12` [OSI-930], the “relative IC50” value in assay [1] and in assay [2] was above 2500 nM in each case.
In the case of `Cc1ncc(Cl)cc1NCc1ccc(C(=O)N[C@@H](CC2CCCC2)C(=O)NC2CC2)s1`, the “relative IC50” value is above 5000 nM in assay [1] and 103 nM in assay [2].
With `O=C(NOC[C@H](O)CO)c1ccc(F)c(F)c1Nc1ccc(I)cc1F`, the “relative IC50” value in [1] and in assay [2] was above 1000 nM each time.
Consider `Cc1cc(-c2ncc(-c3cccnc3)cc2/C=C/c2ccccc2)cnc1-c1cccnc1` [Pyridoclax], for which the “relative IC50” value in assay [1] was above 25000 nM; in [2] it was 672 nM.
On to `C#Cc1cccc(Nc2ncnc3cc4c(cc23)OCCOCCOCCO4)c1` [Icotinib], for which the “relative IC50” value in assay [1] is above 10000 nM.
Take `CN1CC[C@@H](NC(=O)Nc2ccc(C#N)cc2)C[C@@H]1c1nc2ccccc2[nH]1` [Glasdegib]: the “relative IC50” value in assay [1] and in assay [2] was above 1000 nM throughout.
As for `Cc1ccccc1C(C(=O)NC1CCCCC1)N(C(=O)Cn1ccnc1C)c1cccc(F)c1` (stereo not given) [AGI-5198], the “relative IC50” value in assay [1] and in assay [2] was above 10000 nM in each case.
Regarding `O=C(NC[C@H](O)CN1CCc2ccccc2C1)c1cc(NC2COC2)ncn1`, the “relative IC50” value in assay [1] is above 10000 nM.
With `C=CC(=O)Nc1cccc(Nc2nc(Nc3ccc(OCCOC)cc3)ncc2F)c1` [Spebrutinib], the “relative IC50” value in assay [1] was above 1000 nM.
As a reminder, the % inhibition is the relative decrease from the control value, in per cent. Take `Cn1cc(-c2ccc3nnc(C(F)(F)c4ccc5ncccc5c4)n3n2)cn1` (max concentration tested 10000 nM): the drug sensitivity score was 0.05 in assay [4], 0.54 in assay [5], 1.21 in [6] and 0 in [10]. For the same molecule, the results for the “% inhibition” value in [7], in assay [8] and in assay [9] were 11.5%, 18.4% and 17.4%, respectively.
Turning to `COC(=O)N[C@@H](C)CNc1nccc(-c2cn(C(C)C)nc2-c2cc(Cl)cc(NS(C)(=O)=O)c2F)n1` [Encorafenib], the “relative IC50” value in assay [1] and in [2] was above 1000 nM throughout.
For the molecule `CCOc1ccn(-c2ccc(F)cc2)c(=O)c1C(=O)Nc1ccc(Oc2ccnc(N)c2Cl)c(F)c1` (max concentration tested 2500 nM), the drug sensitivity score in [4] stood at 0; in [5] it was 0; in [6] it was 1.43; in assay [10] it was 0. The entries for the “% inhibition” value in assay [7], in [8] and in [9] were 4.22%, 2.08% and 15.6%, respectively.
Turning to `O=C(NOCCO)c1ccc2cncn2c1Nc1ccc(I)cc1F` [GDC-0623] (max concentration tested 2500 nM), the drug sensitivity score in assay [4] came to 5.27; in assay [5], 0; in [6], 3.76; in assay [10], 0.89. In addition, the “% inhibition” value in [7] amounted to 55%; in [8], 6.24%; in assay [9], 37.1%.
For the molecule `CS(=O)(=O)N1CCc2c(-c3cnc(N)nc3)nc(N3CCOCC3)nc21` (max concentration tested 10000 nM), the drug sensitivity score in [4] amounted to 3.35; in assay [5], 14.4; in assay [6] it was 4.81; in assay [10] it was 0. In addition, the “% inhibition” value in assay [7] turned out to be 32%; in assay [8], 77.8%; in assay [9], 42.7%.
For `CCN(CC)Cc1ccc2cc(COC(=O)Nc3ccc(C(=O)NO)cc3)ccc2c1` [Givinostat] (max concentration tested 1000 nM), the drug sensitivity score came to 8.81 in assay [4], 13.1 in assay [5], 3.45 in assay [6] and 1.98 in [10]. Besides, the “% inhibition” value was 98% in [7], 98.9% in [8] and 69.4% in assay [9].
As to `CNc1nc(Nc2cn(C(C)(C)C#N)nc2C)ncc1C(F)(F)F` [GNE-0877] (max concentration tested 1000 nM), the drug sensitivity score in assay [4] was determined as 0; in assay [5] it was 0; in [6] it was 2.29; in assay [10], 0. Also, the “% inhibition” value in assay [7] is 5.3%; in [8], -4.9%; in [9] it was 23.4%.
Consider `COCC(=O)NC/C=C/c1ccc2ncnc(Nc3ccc(Oc4ccc(C)nc4)c(C)c3)c2c1` (max concentration tested 10000 nM), for which the drug sensitivity score came to 3.05 in assay [4], 0.62 in assay [5], 5.3 in [6] and 0 in [10]. Moreover, the “% inhibition” value in assay [7] worked out at 32.2%; in assay [8], 19.9%; in assay [9], 56.7%.
As for `NC(=O)N1CCC(CC(=O)N2CCC([C@H]3c4ncc(Br)cc4CCc4cc(Cl)cc(Br)c43)CC2)CC1` [Lonafarnib] (max concentration tested 10000 nM), the drug sensitivity score in assay [4] was found to be 4.95; in assay [5], 5.95; in assay [6], 4.36; in assay [10], 0. The “% inhibition” value in assay [7] is 55.5%; in [8] it was 64.4%; in assay [9] it was 58%.
Turning to `NCC(=O)Nc1ccc(-n2nc(C(F)(F)F)cc2-c2ccc3c(ccc4ccccc43)c2)cc1` (max concentration tested 25000 nM), the drug sensitivity score in assay [4] turned out to be 7.03; in assay [5], 5.55; in assay [6], 4.86; in assay [10] it was 7.95. For the same molecule, the “% inhibition” value in [7], in assay [8] and in [9] was 101% throughout.
For `C1=N/C2=N/c3ccc(OCCN4CCCC4)c(c3)COC/C=C/COCc3cccc(c3)C(=C1)N2` [Pacritinib] (max concentration tested 10000 nM), the drug sensitivity score stood at 8.63 in assay [4], 8.15 in assay [5], 10.8 in assay [6] and 4.15 in assay [10]. For the same molecule, the “% inhibition” value in assay [7] was found to be 99.6%; in [8], 100%; in assay [9], 99.4%.
As to `N[C@@H]1CCCN(c2c(/C=C3\SC(=O)NC3=O)cccc2-c2ccccc2)C1` [AZD1208] (max concentration tested 10000 nM), the drug sensitivity score in [4] is 0; in assay [5], 7.54; in [6], 0; in [10] it was 0. In addition, the “% inhibition” value is -3.67% in assay [7], 38.7% in assay [8] and -5.48% in assay [9].
For the molecule `N[C@@H](Cc1ccc(N(CCCl)CCCl)cc1)C(=O)O` [Melphalan] (max concentration tested 12500 nM), the drug sensitivity score in [4], in assay [5], in assay [6] and in [10] was 0 in each case. For the same molecule, the entries for the “% inhibition” value in assay [7], in [8] and in assay [9] were 7.23%, 3.44% and 3.32%, respectively.
Regarding `COc1cc(OC)c(/C=C/S(=O)(=O)Cc2ccc(OC)c(NCC(=O)O)c2)c(OC)c1` [Rigosertib] (max concentration tested 10000 nM), the drug sensitivity score in assay [4] amounted to 21.8; in [5] it was 21.8; in assay [6] it was 14.8; in assay [10], 0. The “% inhibition” value in assay [7] was found to be 87.6%; in assay [8] it was 79.3%; in assay [9], 61.8%.
`CC(C)[C@H]1C(=O)N[C@@H](CCCNC(=N)N)C(=O)NCC(=O)N[C@@H](CC(=O)O)C(=O)N[C@H](Cc2ccccc2)C(=O)N1C` [Cilengitide] (max concentration tested 10000 nM): the drug sensitivity score in [4] was determined as 1.06; in [5], 0; in [6] it was 0; in [10], 0. Further, the “% inhibition” value is 27% in assay [7], -3.66% in assay [8] and 1.31% in assay [9].
